pIC50: −log10 of the molar value.
Key:
[1] = biological target: T1, Human PDGFRβ, cytoplasmic domain (GST-PDGFRβ) (Homo sapiens, UniProt P09619); assay: Human PDGFRβ biochemical inhibition assay (off-chip Mobility Shift Assay)
T1 construct: made in house
Summary of the method: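 GST-tagged cytoplasmic domain (aa 557-1106) from baculovirus was incubated 1 h at room temperature with compound, CSKtide, ATP at Km and Mg²⁺ in HEPES buffer, pH 7.5. Phosphorylated and unphosphorylated peptide were separated by off-chip mobility shift, and the product ratio P/(P+S) gave percent inhibition.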

[2] = biological target: T2, Human PDGFRα, cytoplasmic domain (GST-PDGFRα) (Homo sapiens, UniProt P16234); assay: Human PDGFRα biochemical inhibition assay (off-chip Mobility Shift Assay)
T2 construct: made in house
T2 sequence (P16234 550-1089 T674I): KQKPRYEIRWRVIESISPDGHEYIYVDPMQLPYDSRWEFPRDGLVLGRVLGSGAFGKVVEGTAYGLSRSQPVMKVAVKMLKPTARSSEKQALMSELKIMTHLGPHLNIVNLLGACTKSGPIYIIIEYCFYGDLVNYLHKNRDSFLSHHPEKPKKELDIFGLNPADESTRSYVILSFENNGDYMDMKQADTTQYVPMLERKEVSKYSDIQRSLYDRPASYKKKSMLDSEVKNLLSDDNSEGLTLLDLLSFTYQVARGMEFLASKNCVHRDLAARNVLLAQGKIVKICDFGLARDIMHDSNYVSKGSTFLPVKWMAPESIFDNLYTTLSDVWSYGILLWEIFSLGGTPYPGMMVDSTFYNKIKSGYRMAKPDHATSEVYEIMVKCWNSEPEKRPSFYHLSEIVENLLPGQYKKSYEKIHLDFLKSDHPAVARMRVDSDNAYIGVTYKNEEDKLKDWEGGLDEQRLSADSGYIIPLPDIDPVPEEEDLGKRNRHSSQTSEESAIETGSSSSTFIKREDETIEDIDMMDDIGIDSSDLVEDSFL

T1 sequence (P09619 with tags, fused parts or gaps): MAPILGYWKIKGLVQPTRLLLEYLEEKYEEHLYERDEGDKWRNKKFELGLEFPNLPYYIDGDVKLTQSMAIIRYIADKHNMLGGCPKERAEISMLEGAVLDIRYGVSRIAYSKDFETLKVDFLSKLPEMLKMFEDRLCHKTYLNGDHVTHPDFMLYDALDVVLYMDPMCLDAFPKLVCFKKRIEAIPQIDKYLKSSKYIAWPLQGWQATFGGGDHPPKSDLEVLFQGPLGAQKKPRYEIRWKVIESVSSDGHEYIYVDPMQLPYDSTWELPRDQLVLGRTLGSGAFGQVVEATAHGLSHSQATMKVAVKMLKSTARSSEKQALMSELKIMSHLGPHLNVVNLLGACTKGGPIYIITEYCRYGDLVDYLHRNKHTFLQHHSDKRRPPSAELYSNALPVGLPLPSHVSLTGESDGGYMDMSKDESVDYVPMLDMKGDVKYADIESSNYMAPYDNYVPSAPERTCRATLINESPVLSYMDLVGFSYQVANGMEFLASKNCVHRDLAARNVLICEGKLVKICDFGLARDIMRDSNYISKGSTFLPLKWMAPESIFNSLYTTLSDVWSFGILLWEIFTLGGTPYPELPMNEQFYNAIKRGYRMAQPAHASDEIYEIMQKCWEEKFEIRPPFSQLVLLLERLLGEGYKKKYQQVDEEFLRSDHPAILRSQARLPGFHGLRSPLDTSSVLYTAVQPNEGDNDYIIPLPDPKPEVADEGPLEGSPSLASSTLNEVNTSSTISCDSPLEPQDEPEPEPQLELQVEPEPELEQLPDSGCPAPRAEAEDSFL

pIC50 [1]	pIC50 [2]	Structure (SMILES)
> 6.52	> 6.52	CCc1ccc(C(=O)Nc2cccc([C@H](C)Nc3cnc4cnn(C)c4n3)c2)cn1 [Compound 207, (S)-6-ethyl-N-(3-(1-((1-methyl-1H-pyrazolo[3,4-b]pyrazin-6-yl)amino)ethyl)phenyl) nicotinamide]
> 6.52	> 6.52	CCn1cc2ncc(N[C@@H](C)c3cc(NC(=O)c4cnc(N5CCN(C)CC5)c(C(F)(F)F)c4)ccc3F)nc2n1 [Compound 445, (S)-N-(3-(1-((2-ethyl-2H-pyrazolo[3,4-b]pyrazin-6-yl)amino)ethyl)-4-fluorophenyl)-6-(4-methylpiperazin-1-yl)-5-(trifluoromethyl)nicotinamide]
> 6.52	> 6.52	CCn1cc2ncc(N[C@@H](C)c3cc(NC(=O)c4cncc(C)c4)ccc3C)nc2n1 [Compound 510, (S)-N-(3-(1-((2-ethyl-2H-pyrazolo[3,4-b]pyrazin-6-yl)amino)ethyl)-4-methylphenyl)-5-methylnicotinamide]
> 6.52	> 6.52	CCn1cc2ncc(N[C@@H](C)c3cccc(NC(=O)c4cc(F)c(CN5CCN(C)CC5)c(Cl)c4)c3)nc2n1 [Compound 489, (S)-3-chloro-N-(3-(1-((2-ethyl-2H-pyrazolo[3,4-b]pyrazin-6-yl)amino)ethyl)phenyl)-5-fluoro-4-((4-methylpiperazin-1-yl)methyl)benzamide]
> 6.52	> 6.52	Cc1cncc(C(=O)Nc2cccc([C@H](C)Nc3cnc4cn(-c5ccccc5)nc4n3)c2)c1 [Compound 434, (S)-5-methyl-N-(3-(1-((2-phenyl-2H-pyrazolo[3,4-b]pyrazin-6-yl)amino)ethyl)phenyl)nicotinamide]
> 6.52	> 6.52	C[C@H](Nc1cnc2cnn(C)c2n1)c1cccc(NC(=O)c2ccc(Cl)c(F)c2)c1 [Compound 191, (S)-4-chloro-3-fluoro-N-(3-(1-((1-methyl-1H-pyrazolo[3,4-b]pyrazin-6-yl)amino)ethyl)phenyl)benzamide]
> 6.52	> 6.52	Cc1cncc(C(=O)Nc2cccc([C@H](C)Nc3cnc4[nH]cc(-c5ccncc5)c4n3)c2)c1 [Compound 592, (S)-5-methyl-N-(3-(1-((7-(pyridin-4-yl)-5H-pyrrolo[2,3-b]pyrazin-2-yl)amino)ethyl)phenyl)nicotinamide]
> 6.52	> 6.52	C[C@H](Nc1cnc2cn[nH]c2n1)c1cccc(NC(=O)c2cncc(C(C)(C)F)c2)c1 [Compound 94, (S)-N-(3-(1-((1H-pyrazolo[3,4-b]pyrazin-6-yl)amino)ethyl)phenyl)-5-(2-fluoropropan-2-yl) nicotinamide]
> 6.52	> 6.52	CCn1cc2ncc(N[C@@H](C)c3cccc(NC(=O)c4ccc(CN5CCN(C)CC5)c(Cl)c4)c3)nc2n1 [Compound 417, (S)-3-chloro-N-(3-(1-((2-ethyl-2H-pyrazolo[3,4-b]pyrazin-6-yl)amino)ethyl)phenyl)-4-((4-methylpiperazin-1-yl)methyl) benzamide]
≤ 6.00	≤ 6.00	Cc1cncc(C(=O)Nc2cccc([C@H](C)Nc3cnc4ccn(CCN5CCOCC5)c4n3)c2)c1 [Compound 85, (S)-5-methyl-N-(3-(1-((5-(2-morpholinoethyl)-5H-pyrrolo [2,3-b]pyrazin-3-yl)amino)ethyl)phenyl)nicotinamide]
≤ 6.00	> 6.52	CCn1cc2ncc(N[C@@H](C)c3cc(NC(=O)Cc4ccc(C5CCC5)cn4)ccc3F)nc2n1 [Compound 667, (S)-2-(5-cyclobutylpyridin-2-yl)-N-(3-(1-((2-ethyl-2H-pyrazolo[3,4-b]pyrazin-6-yl)amino)ethyl)-4-fluorophenyl) acetamide]
> 6.52	> 6.52	CCn1cc2ncc(N[C@@H](C)c3cccc(NC(=O)c4cc(Cl)c(Cl)s4)c3)nc2n1 [Compound 357, (S)-4,5-dichloro-N-(3-(1-((2-ethyl-2H-pyrazolo[3,4-b]pyrazin-6-yl)amino)ethyl)phenyl)thiophene-2-carboxamide]
> 6.52	> 6.52	CCn1cc(C(=O)Nc2cccc([C@H](C)Nc3cnc4[nH]cc(C)c4n3)c2)cn1 [Compound 574, (S)-1-ethyl-N-(3-(1-((7-methyl-5H-pyrrolo[2,3-b]pyrazin-2-yl)amino)ethyl)phenyl)-1H-pyrazole-4-carboxamide]
≤ 6.00	6.00 to 6.52	CCn1cc2ncc(N[C@@H](C)c3cccc(NC(=O)c4cnc(-c5cnn(C)c5)s4)c3)nc2n1 [Compound 342, (S)-N-(3-(1-((2-ethyl-2H-pyrazolo[3,4-b]pyrazin-6-yl)amino)ethyl)phenyl)-2-(1-methyl-1H-pyrazol-4-yl) thiazole-5-carboxamide]
≤ 6.00	> 6.52	CCn1cc2ncc(N[C@@H](C)c3cc(NC(=O)Cc4ccc5c(n4)OCCC5)ccc3C)nc2n1 [Compound 721, (S)-2-(3,4-dihydro-2H-pyrano[2,3-b]pyridin-7-yl)N-(3-(1-((2-ethyl-2H-pyrazolo[3,4-b]pyrazin-6-yl)amino)ethyl)-4-methylphenyl)acetamide]
6.00 to 6.52	6.00 to 6.52	Cc1cncc(C(=O)Nc2cccc([C@H](C)Nc3cnc4cn(CC(C)C)nc4n3)c2)c1 [Compound 276, (S)-N-(3-(1-((2-isobutyl-2H-pyrazolo[3,4-b]pyrazin-6-yl)amino)ethyl)phenyl)-5-methylnicotinamide]
≤ 6.00	> 6.52	CCn1cc2ncc(N[C@@H](C)c3cc(NC(=O)Cc4ccc(C5CCC5)nc4)ccc3F)nc2n1 [Compound 671, (S)-2-(6-cyclobutylpyridin-3-yl)-N-(3-(1-((2-ethyl-2H-pyrazolo[3,4-b]pyrazin-6-yl)amino)ethyl)-4-fluorophenyl) acetamide]
6.00 to 6.52	> 6.52	Cc1cncc(C(=O)Nc2cccc([C@H](C)Nc3cnc4ccccc4c3)c2)c1 [Compound 2, (S)-5-methyl-N-(3-(1-(quinolin-3-ylamino)ethyl)phenyl)nicotinamide]
≤ 6.00	≤ 6.00	CCn1cc2ncc(N[C@@H](C)c3cc(NC(=O)Cc4ccc5c(n4)CCCC5)ccc3C)nc2n1 [Compound 728, (S)-N-(3-(1-((2-ethyl-2H-pyrazolo[3,4-b]pyrazin-6-yl)amino)ethyl)-4-methylphenyl)-2-(5,6,7,8-tetrahydroquinolin-2-yl)acetamide]
> 6.52	> 6.52	COc1ccc(C(=O)Nc2cccc([C@H](C)Nc3cnc4cnn(C)c4n3)c2)cc1F [Compound 189, (S)-3-fluoro-4-methoxy-N-(3-(1-((1-methyl-1H-pyrazolo[3,4-b]pyrazin-6-yl)amino)ethyl)phenyl)benzamide]
> 6.52	> 6.52	CNc1ncc(C(=O)Nc2cccc([C@H](C)Nc3cnc4[nH]cc(-c5cnn(C)c5)c4n3)c2)cc1C [Compound 587, (S)-5-methyl-N-(3-(1-((7-(1-methyl-1H-pyrazol-4-yl)-5H-pyrrolo[2,3-b]pyrazin-2-yl)amino)ethyl)phenyl)-6-(methylamino)nicotinamide]
> 6.52	> 6.52	CCn1cc2ncc(N[C@@H](C)c3cc(NC(=O)c4ccc(OC(F)F)nc4)ccc3F)nc2n1 [Compound 304, (S)-6-(difluoromethoxy)-N-(3-(1-((2-ethyl-2H-pyrazolo[3,4-b]pyrazin-6-yl)amino)ethyl)-4-fluorophenyl)nicotinamide]
> 6.52	> 6.52	COc1ccc(-n2ccc3ncc(N[C@@H](C)c4cccc(NC(=O)c5cncc(C)c5)c4)nc32)cc1OC [Compound 87, (S)-N-(3-(1-((5-(3,4-dimethoxyphenyl)-5H-pyrrolo [2,3-b]|pyrazin-3-yl)amino)ethyl)phenyl)-5-methylnicotinamide]
> 6.52	> 6.52	C[C@H](Nc1cnc2cnn(C)c2n1)c1cccc(NC(=O)c2cnn(C(C)(C)C)c2)c1 [Compound 148, (S)-1-(tert-butyl)-N-(3-(1-((1-methyl-1H-pyrazolo[3,4-b]pyrazin-6-yl)amino)ethyl)phenyl)-1H-pyrazole-4-carboxamide]
> 6.52	> 6.52	C[C@H](Nc1cnc2cnn(C)c2n1)c1cccc(NC(=O)c2cncc(C(C)(C)F)c2)c1 [Compound 108, (S)-5-(2-fluoropropan-2-yl)-N-(3-(1-((1-methyl-1H-pyrazolo[3,4-b]pyrazin-6-yl)amino)ethyl)phenyl) nicotinamide]
≤ 6.00	> 6.52	CCn1cc2ncc(N[C@@H](C)c3cccc(NC(=O)Cc4ccc(F)cn4)c3)nc2n1 [Compound 647, (S)-N-(3-(1-((2-ethyl-2H-pyrazolo[3,4-b]pyrazin-6-yl)amino)ethyl)phenyl)-2-(5-fluoropyridin-2-yl)acetamide]
> 6.52	> 6.52	CCOC(=O)c1ccc(C(=O)Nc2cccc([C@H](C)Nc3cnc4cnn(C)c4n3)c2)cc1C [Compound 255, ethyl (S)-2-methyl-4-((3-(1-((1-methyl-1H-pyrazolo[3,4-b]pyrazin-6-yl)amino)ethyl)phenyl)carbamoyl)benzoate]
> 6.52	> 6.52	Cc1cncc(C(=O)Nc2cccc(CNc3cnc4ccccc4n3)c2)c1 [Compound 31, 5-methyl-N-(3-((quinoxalin-2-ylamino)methyl)phenyl) nicotinamide]
> 6.52	> 6.52	C[C@H](Nc1cnc2cnn(C)c2n1)c1cccc(NC(=O)c2ccc(OC(F)(F)F)nc2)c1 [Compound 119, (S)-N-(3-(1-((1-methyl-1H-pyrazolo[3,4-b]pyrazin-6-yl)amino)ethyl)phenyl)-6-(trifluoromethoxy)nicotinamide]
> 6.52	> 6.52	Cc1cncc(C(=O)Nc2cccc([C@H](C)Nc3cnc4[nH]ccc4n3)c2)c1 [Compound 552, (S)-N-(3-(1-((5H-pyrrolo[2,3-b]pyrazin-2-yl)amino)ethyl)phenyl)-5-methylnicotinamide]

Source: patent US20230102554A1 (GB002, INC., priority 2019, published 2023)
